# The source made the active and inactive calls. The calls are words filed in the database; no cut-off is given here.
# Columns and labels:
# [1] = system: HT-29; assay: Anti-necroptotic activity in human HT-29 cells assessed as inhibition of human TNFalpha/Smac mimetic/Z-VAD-FMK induced necroptosis preincubated with compound followed by TSZ stimulation for 12 hrs; format: functional, cell-based
# [2] = system: HT-29; assay: Cytotoxicity against human HT-29 cells incubated at 100 uM for 16 to 24 hrs measured by cell-titre glo luminescent cell viability assay; format: functional, cell-based; details: time 16-24 hrs
# [3] = system: HT-29; assay: Cytotoxicity against human HT-29 cells incubated for 16 to 24 hrs measured by cell-titre glo luminescent cell viability assay; format: functional; details: time 16-24 hrs
# [4] = system: HT-29; assay: Anti-necroptotic activity in human HT-29 cells assessed as inhibition of human TNFalpha/Smac mimetic/Z-VAD-FMK induced necroptosis preincubated with compound for 16 to 24 hrs followed by TSZ stimulation for 12 hrs measured by cell-titre glo luminescent cell viability assay; format: functional, cell-based
# [5] = system: Mus musculus; assay: In vivo anti-inflammatory activity in NNK induced induced C57BL/6J ALI mouse model assessed as lung injury score pretreated at 5 mg/kg, ip for 1 hr followed by NNK administration relative to disease model (reference value: 5.7 +/- 0.5); format: functional
# [6] = biological target: Receptor-interacting serine/threonine-protein kinase 3 (Homo sapiens, UniProt Q9Y572); assay: Binding affinity to human wildtype full length RIPK3 (M1 to Q307 residues) expressed in bacterial expression system assessed as dissociation constant by kinome scan kd select based qPCR analysis
# Receptor-interacting serine/threonine-protein kinase 3, sequence (Q9Y572 whole entry, the tested form may be a part): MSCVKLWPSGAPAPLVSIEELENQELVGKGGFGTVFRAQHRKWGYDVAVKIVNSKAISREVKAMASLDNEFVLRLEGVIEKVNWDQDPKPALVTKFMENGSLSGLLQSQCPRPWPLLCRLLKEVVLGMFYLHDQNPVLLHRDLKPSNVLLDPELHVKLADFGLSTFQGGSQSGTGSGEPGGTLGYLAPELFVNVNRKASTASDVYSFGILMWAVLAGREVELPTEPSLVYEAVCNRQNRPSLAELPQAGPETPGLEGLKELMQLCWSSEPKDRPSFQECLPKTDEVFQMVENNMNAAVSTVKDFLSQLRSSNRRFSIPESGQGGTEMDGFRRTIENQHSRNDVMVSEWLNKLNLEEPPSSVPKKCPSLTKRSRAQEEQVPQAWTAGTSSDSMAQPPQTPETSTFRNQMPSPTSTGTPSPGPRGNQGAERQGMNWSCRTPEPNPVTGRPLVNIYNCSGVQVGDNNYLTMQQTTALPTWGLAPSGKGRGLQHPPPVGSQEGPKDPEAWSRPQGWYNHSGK
# [7] = biological target: T1, Receptor-interacting serine/threonine-protein kinase 1 (Homo sapiens, UniProt Q13546); assay: Binding affinity to human wildtype full length RIPK1 (M1 to K305 residues) expressed in bacterial expression system assessed as dissociation constant by kinome scan kd select based qPCR analysis
# T1 sequence (Q13546 whole entry): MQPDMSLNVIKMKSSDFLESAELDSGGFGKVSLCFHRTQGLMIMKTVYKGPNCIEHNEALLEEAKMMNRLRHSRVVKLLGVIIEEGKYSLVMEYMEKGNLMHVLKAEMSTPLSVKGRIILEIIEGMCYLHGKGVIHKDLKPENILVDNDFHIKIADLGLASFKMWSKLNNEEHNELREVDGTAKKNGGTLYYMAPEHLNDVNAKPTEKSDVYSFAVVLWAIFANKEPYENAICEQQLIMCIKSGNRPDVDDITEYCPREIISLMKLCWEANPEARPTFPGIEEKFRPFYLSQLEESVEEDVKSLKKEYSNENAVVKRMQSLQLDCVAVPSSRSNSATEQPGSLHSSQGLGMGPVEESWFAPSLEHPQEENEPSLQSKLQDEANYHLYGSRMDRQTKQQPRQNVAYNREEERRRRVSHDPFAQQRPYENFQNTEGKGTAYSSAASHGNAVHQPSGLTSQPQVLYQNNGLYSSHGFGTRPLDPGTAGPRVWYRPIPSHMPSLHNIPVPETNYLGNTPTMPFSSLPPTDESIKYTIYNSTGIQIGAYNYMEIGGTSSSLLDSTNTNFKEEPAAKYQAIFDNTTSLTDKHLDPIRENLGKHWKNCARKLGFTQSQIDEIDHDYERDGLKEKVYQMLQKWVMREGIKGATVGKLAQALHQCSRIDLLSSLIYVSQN
SMILES,Activity [1],Activity [2],CC50 [3] [nM],EC50 [4] [nM],Activity [5],Kd [6] [nM],Kd [7] [nM],EC50 [1] [nM]
O=C(Cc1cccc(C(F)(F)F)c1)Nc1cc(Oc2cc3sc(NC(=O)C4CCC(O)CC4)nc3cc2F)ccc1F (centres undefined),inactive,Active,> 100000,95.6,,,,
O=C(Cc1cccc(C(F)(F)F)c1)Nc1cc(Oc2cc3sc(NC(=O)C4CCC(NC(=O)C5CCCC5)CC4)nc3cc2F)ccc1F (centres undefined),inactive,Active,> 100000,72.9,,,,
O=C(Cc1cccc(C(F)(F)F)c1)Nc1cc(Oc2cc3sc(NC(=O)C4CCC(NC(=O)c5ccc(F)cc5)CC4)nc3cc2F)ccc1F (centres undefined),inactive,Active,> 100000,55.2,,,,
CC(=O)OCC(=O)NC1CCC(C(=O)Nc2nc3cc(F)c(Oc4ccc(F)c(NC(=O)Cc5cccc(C(F)(F)F)c5)c4)cc3s2)CC1 (centres undefined),inactive,Active,> 100000,81.8,,,,
C[C@@H]1C[C@H]2[C@@H]3CCC4=CC(=O)C=C[C@]4(C)[C@@]3(F)[C@@H](O)C[C@]2(C)[C@@]1(O)C(=O)CO [DEXAMETHASONE],,,,,3.7,,,
O=C(Cc1cccc(C(F)(F)F)c1)Nc1cc(Oc2cc3sc(NC(=O)C4CCC(NC(=O)OCc5ccccc5)CC4)nc3cc2F)ccc1F (centres undefined),inactive,Active,> 100000,945,,,,
CCCCC(=O)NC1CCC(C(=O)Nc2nc3cc(F)c(Oc4ccc(F)c(NC(=O)Cc5cccc(C(F)(F)F)c5)c4)cc3s2)CC1 (centres undefined),inactive,Active,> 100000,42.4,,> 10000,45,
CCCC(=O)NC1CCC(C(=O)Nc2nc3cc(F)c(Oc4ccc(F)c(NC(=O)Cc5cccc(C(F)(F)F)c5)c4)cc3s2)CC1 (centres undefined),inactive,Active,> 100000,82.7,,,,
CCOCC(=O)NC1CCC(C(=O)Nc2nc3cc(F)c(Oc4ccc(F)c(NC(=O)Cc5cccc(C(F)(F)F)c5)c4)cc3s2)CC1 (centres undefined),inactive,Active,> 100000,48.4,,> 10000,15,
CCCC1CCC(C(=O)Nc2nc3cc(F)c(Oc4ccc(F)c(NC(=O)Cc5cccc(C(F)(F)F)c5)c4)cc3s2)CC1 (centres undefined),inactive,Active,> 100000,> 10000,,,,
O=C(Cc1cccc(C(F)(F)F)c1)Nc1cc(Oc2cc3sc(NC(=O)C4CCC(NS(=O)(=O)c5ccccc5)CC4)nc3cc2F)ccc1F (centres undefined),inactive,Active,> 100000,234,,,,
O=C(Cc1cccc(C(F)(F)F)c1)Nc1cc(Oc2cc3sc(NC(=O)C4CCCC(NC(=O)C5CC5)C4)nc3cc2F)ccc1F (centres undefined),inactive,Active,> 100000,71.2,,,,
N#Cc1c(Oc2ccc(F)c(NC(=O)Cc3cccc(C(F)(F)F)c3)c2)ccc2nc(NC(=O)C3CC3)sc12,,,> 50000,,,,,
O=C1CCC(C(=O)Nc2nc3ccc(Oc4ccc(F)c(NC(=O)Cc5cccc(C(F)(F)F)c5)c4)cc3s2)CC1,,,> 50000,,,,,50
CC(C)CC(=O)NC1CCC(C(=O)Nc2nc3cc(F)c(Oc4ccc(F)c(NC(=O)Cc5cccc(C(F)(F)F)c5)c4)cc3s2)CC1 (centres undefined),inactive,Active,> 100000,47.5,,,,
CC(C)(C)OC(=O)NC1CCCC(C(=O)Nc2nc3cc(F)c(Oc4ccc(F)c(NC(=O)Cc5cccc(C(F)(F)F)c5)c4)cc3s2)C1 (centres undefined),inactive,Active,> 100000,334,,,,
O=C(Cc1cccc(C(F)(F)F)c1)Nc1cc(Oc2cc3sc(NC(=O)C4CCC(NC(=O)C5CC5)CC4)nc3cc2F)ccc1F (centres undefined),inactive,Active,> 100000,50.5,,,,
O=C(Cc1cccc(C(F)(F)F)c1)Nc1cc(Oc2cc3sc(NC(=O)C4CCC(NC(=O)c5cccs5)CC4)nc3cc2F)ccc1F (centres undefined),inactive,Active,> 100000,52.9,,> 10000,69,
CC(C)(C)OC(=O)NC1CCC(C(=O)Nc2nc3cc(F)c(Oc4ccc(F)c(NC(=O)Cc5cccc(C(F)(F)F)c5)c4)cc3s2)CC1 (centres undefined),inactive,Active,> 100000,136,,,,
COCC(=O)NC1CCC(C(=O)Nc2nc3cc(F)c(Oc4ccc(F)c(NC(=O)Cc5cccc(C(F)(F)F)c5)c4)cc3s2)CC1 (centres undefined),inactive,Active,> 100000,44.8,,> 10000,15,
CC(C)C(=O)NC1CCC(C(=O)Nc2nc3cc(F)c(Oc4ccc(F)c(NC(=O)Cc5cccc(C(F)(F)F)c5)c4)cc3s2)CC1 (centres undefined),inactive,Active,> 100000,34.1,,> 10000,15,
O=C(Cc1cccc(C(F)(F)F)c1)Nc1cc(Oc2cc3sc(NC(=O)C4CCC(NC(=O)CCCl)CC4)nc3cc2F)ccc1F (centres undefined),inactive,Active,> 100000,50,,> 10000,43,
CCCS(=O)(=O)NC1CCC(C(=O)Nc2nc3cc(F)c(Oc4ccc(F)c(NC(=O)Cc5cccc(C(F)(F)F)c5)c4)cc3s2)CC1 (centres undefined),inactive,Active,> 100000,119,,,,
CCCC1CCC(C2CCC(C(=O)Nc3nc4cc(F)c(Oc5ccc(F)c(NC(=O)Cc6cccc(C(F)(F)F)c6)c5)cc4s3)CC2)CC1 (centres undefined),inactive,Active,> 100000,> 10000,,,,
CCC(=O)NC1CCC(C(=O)Nc2nc3cc(F)c(Oc4ccc(F)c(NC(=O)Cc5cccc(C(F)(F)F)c5)c4)cc3s2)CC1 (centres undefined),inactive,Active,> 100000,83.2,,,,

# From ChEMBL document CHEMBL5380814, “Targeting Receptor-Interacting Protein Kinase 1 by Novel Benzothiazole Derivatives: Treatment of Acute Lung Injury through the Necroptosis Pathway” (J Med Chem, 2023)
